Reference: paper PMC6263544, “Second-generation pterocarpanquinones: synthesis and antileishmanial activity” (The Journal of Venomous Animals and Toxins Including …, 2018)
Entries after “also recorded” stand apart in the source; their conditions may differ.

test system: not listed separately; experiment: Macrophage toxicity test (resazurin); format: cell-based, Swiss mice; settings: mouse; peritoneal macrophages of Swiss mice, 72 h, resazurin, Mean ± SEM; read-out: Murine Macrophage CC50
Method: (§1) To evaluate the toxicity of pterocarpanquinones 2a-f, peritoneal macrophages of Swiss mice (2 × 10^6/mL) were incubated with pterocarpanquinones (1.25–100 μM) for 72 h at 37 °C/5% CO2. Viability was evaluated with resazurin assay as described for the antipromastigote test. The 50% cytotoxicity concentration (CC50) was determined by nonlinear regression analysis in the software GraphPad Prism 5.

Row | SMILES | CC50 at 72 h [µM]
1 | O=C1C2=C(C(=O)c3ccccc31)[C@H]1COc3cc4c(cc3[C@H]1O2)OCO4 [LQB 168 (2d)] | 77.7 ± 1.1
2 | O=C1C2=C(C(=O)c3ccccc31)[C@H]1COc3ccccc3[C@H]1O2 [LQB 182 (2b)] | 16.9 ± 1.2

test system: peritoneal macrophages of Swiss mice; experiment: Macrophage toxicity test (resazurin); format: cell-based; settings: peritoneal macrophages, CC50 77.7 μM vs 18.46 μM
Method: as §1

Row | SMILES | fold higher CC50 than LQB-118 (less cytotoxic) [fold]
3 | O=C1C2=C(C(=O)c3ccccc31)[C@H]1COc3cc4c(cc3[C@H]1O2)OCO4 [LQB 168 (2d)] | 4.2

test system: L. amazonensis promastigotes; experiment: Antipromastigote test, L. amazonensis; format: cell-based, Leishmania amazonensis; settings: Leishmania amazonensis; 72 h, resazurin, Mean ± SEM; read-out: L. amazonensis Promastigote IC50
Method: New cultures of promastigotes were obtained from infected Balb/C mice. […] A stock solution of the compounds was prepared at 50 mM in dimethylsulfoxide (Sigma Aldrich). The maximum solvent concentration used in the assays was 0.4% in a final volume per well of 200 μL. The cultures were initiated with 1.0 × 10^6 cells/ml and maintained at 26 °C for 72 h. Inhibition of parasitic growth was determined by cell viability indicator, resazurin [23], with excitation λ = 560 nm and emission λ = 590 nm or the number of parasites was then counted in a Neubauer chamber (experiments with L. braziliensis).

Row | SMILES | IC50 [µM]
4 | O=C1C2=C(C(=O)c3ccccc31)[C@H]1COc3cc4c(cc3[C@H]1O2)OCO4 [LQB 168 (2d)] | 1.37 ± 0.04
5 | O=C1C2=C(C(=O)c3ccccc31)[C@H]1COc3ccccc3[C@H]1O2 [LQB 182 (2b)] | 1.08 ± 0.2

same assay, conditions: promastigotes of L. amazonensis

Row | SMILES | improvement of activity, 2b in comparison to 1
6 | O=C1C2=C(C(=O)c3ccccc31)[C@H]1COc3ccccc3[C@H]1O2 [LQB 182 (2b)] | about 1.6 times

test system: L. braziliensis promastigotes; experiment: Antipromastigote test, L. braziliensis; format: cell-based; settings: Leishmania braziliensis; 72 h, parasites counted in Neubauer chamber, Mean ± SEM; read-out: L. braziliensis Promastigote IC50
Method: L. braziliensis (MCAN/BR/98/R619) was routinely isolated from hamster lesions and maintained as promastigotes in Schneider’s insect medium containing 20% HIFCS and 100 μg/ml gentamicin (Schering-Plough). New cultures of promastigotes were obtained from an infected hamster.
(§2) Leishmania promastigotes of three species were incubated in 96-well plates (Nunc, Roskilde, Denmark) under the conditions described above in either the absence or presence of different concentrations of pterocarpanquinones 2a-f (0-100 μM). A stock solution of the compounds was prepared at 50 mM in dimethylsulfoxide (Sigma Aldrich). The maximum solvent concentration used in the assays was 0.4% in a final volume per well of 200 μL. The cultures were initiated with 1.0 × 10^6 cells/ml and maintained at 26 °C for 72 h. Inhibition of parasitic growth was determined by cell viability indicator, resazurin [23], with excitation λ = 560 nm and emission λ = 590 nm or the number of parasites was then counted in a Neubauer chamber (experiments with L. braziliensis). The 50% inhibitory concentration (IC50) was determined by nonlinear regression analysis in the software GraphPad Prism 5.

Row | SMILES | IC50 [µM]
7 | O=C1C2=C(C(=O)c3ccccc31)[C@H]1COc3cc4c(cc3[C@H]1O2)OCO4 [LQB 168 (2d)] | 28.2 ± 1.61
8 | O=C1C2=C(C(=O)c3ccccc31)[C@H]1COc3ccccc3[C@H]1O2 [LQB 182 (2b)] | 11 ± 1.25

same assay, conditions: promastigotes of L. braziliensis

Row | SMILES | decrease in antileishmanial activity, 2b in comparison to 1 [times]
9 | O=C1C2=C(C(=O)c3ccccc31)[C@H]1COc3ccccc3[C@H]1O2 [LQB 182 (2b)] | 3.2

same assay, conditions: promastigotes of L. braziliensis; listed as 2b

Row | SMILES | activity relative to deoxy derivative 2a
10 | O=C1C2=C(C(=O)c3ccccc31)[C@H]1COc3ccccc3[C@H]1O2 [LQB 182 (2b)] | approximately twice as active; also recorded: approximately two times more active

test system: L. infantum promastigotes; experiment: Antipromastigote test, L. infantum; format: cell-based, Leishmania infantum; settings: Leishmania infantum; 72 h, resazurin, Mean ± SEM; read-out: L. infantum Promastigote IC50
Method: Leishmania infantum (MHOM/MA67ITMAP263) parasites were isolated from female BALB/c mice infected and cultured at 26 °C in Schneider’s insect medium supplemented with 20% HIFCS, streptomycin at 100 μg/ml and penicillin at 100 U/ml. New cultures of promastigotes were obtained from infected Balb/C mice.
as §2

Row | SMILES | IC50 [µM]
11 | O=C1C2=C(C(=O)c3ccccc31)[C@H]1COc3cc4c(cc3[C@H]1O2)OCO4 [LQB 168 (2d)] | 2 ± 0.4
12 | O=C1C2=C(C(=O)c3ccccc31)[C@H]1COc3ccccc3[C@H]1O2 [LQB 182 (2b)] | 1 ± 0.3

same assay, conditions: promastigotes of L. infantum

Row | SMILES | improvement of activity, 2b in comparison to 1 [times]
13 | O=C1C2=C(C(=O)c3ccccc31)[C@H]1COc3ccccc3[C@H]1O2 [LQB 182 (2b)] | ~4

test system: intracellular amastigotes of L. amazonensis; experiment: Antiamastigote test, L. amazonensis in mouse peritoneal macrophages; format: cell-based, Leishmania amazonensis; settings: CC50 in Macrophages/IC50 in intracellular amastigotes
Method: (§3) For the test against intracellular amastigotes of L. amazonensis and L. infantum, resident peritoneal macrophages (swiss mouse) were plated in RPMI (Sigma-Aldrich) at 2 × 10^6/mL (0.4 mL/well) in Lab-Tek eight-chamber slides (Nunc, Roskilde, Denmark) and incubated at 37 °C in 5% CO2 for 1 h. Stationary-phase L. amazonensis and L. infantum promastigotes were added at respective parasite/macrophage ratios of 3:1 and 5:1 for 4 h. After washing three times, pterocarpanquinones 2a-f at various concentrations were added for 72 h. Next, the slides were stained using an Instant Prov hematological dye system (Newprov, Curitiba, Brazil). The number of amastigotes was determined by counting at least 100 macrophages per sample.
(§4) The results were expressed as an infection index (% infected cells×number of amastigotes/total number of macrophages). The 50% inhibitory concentration (IC50) was determined by nonlinear regression analysis in the software GraphPad Prism 5.

Row | SMILES | L. amazonensis SI (Selective Index)
14 | O=C1C2=C(C(=O)c3ccccc31)[C@H]1COc3cc4c(cc3[C@H]1O2)OCO4 [LQB 168 (2d)] | 172.6
15 | O=C1C2=C(C(=O)c3ccccc31)[C@H]1COc3ccccc3[C@H]1O2 [LQB 182 (2b)] | 19.8

same assay, conditions: Leishmania amazonensis, Peritoneal macrophage; intracellular amastigotes in mouse peritoneal macrophages, 72 h, infection index, Mean ± SEM; read-out: L. amazonensis Amastigote IC50

Row | SMILES | IC50 [µM]
16 | O=C1C2=C(C(=O)c3ccccc31)[C@H]1COc3cc4c(cc3[C@H]1O2)OCO4 [LQB 168 (2d)] | 0.45 ± 0.06
17 | O=C1C2=C(C(=O)c3ccccc31)[C@H]1COc3ccccc3[C@H]1O2 [LQB 182 (2b)] | 0.85 ± 0.02

same assay, conditions: amastigotes of L. amazonensis

Row | SMILES | improvement of activity, 2b in comparison to 1
18 | O=C1C2=C(C(=O)c3ccccc31)[C@H]1COc3ccccc3[C@H]1O2 [LQB 182 (2b)] | about 1.6 times

test system: intracellular amastigotes of L. braziliensis; experiment: Antiamastigote test, L. braziliensis in golden hamster macrophages; format: cell-based; settings: CC50 in Macrophages/IC50 in intracellular amastigotes
Method: Macrophages of golden hamsters were used in assays against intracellular amastigotes of L. braziliensis due to the natural resistance of mice. Resident macrophages were obtained from the peritoneal cells of golden hamsters after a peritoneal injection of 10 mL of Dulbecco’s Modified Eagle’s medium (DMEM) (Sigma-Aldrich). The peritoneal macrophages were plated onto glass coverslips placed within the wells of a 24-well culture plate and incubated at 37 °C in 5% CO2 for 1 h. After removing the nonadherent cells, the monolayers were infected with stationary-phase L. braziliensis promastigotes at a 5:1 parasite/macrophage ratio for 4 h. The infected macrophages were washed and incubated with several pterocarpanquinone concentrations (0-25 μM) for 72 h. The monolayers were then stained with Giemsa, and at least 100 infected macrophages per sample were counted under optical microscopy.
as §4

Row | SMILES | L. braziliensis SI (Selective Index)
19 | O=C1C2=C(C(=O)c3ccccc31)[C@H]1COc3cc4c(cc3[C@H]1O2)OCO4 [LQB 168 (2d)] | 11.03
20 | O=C1C2=C(C(=O)c3ccccc31)[C@H]1COc3ccccc3[C@H]1O2 [LQB 182 (2b)] | 2.15

same assay, conditions: Leishmania braziliensis, Peritoneal macrophage; intracellular amastigotes in golden hamster peritoneal macrophages, 72 h, infection index, Mean ± SEM; read-out: L. braziliensis Amastigote IC50

Row | SMILES | IC50 [µM]
21 | O=C1C2=C(C(=O)c3ccccc31)[C@H]1COc3cc4c(cc3[C@H]1O2)OCO4 [LQB 168 (2d)] | 7.04 ± 2.29
22 | O=C1C2=C(C(=O)c3ccccc31)[C@H]1COc3ccccc3[C@H]1O2 [LQB 182 (2b)] | 7.84 ± 2.46

test system: intracellular amastigotes of L. infantum; experiment: Antiamastigote test, L. infantum in mouse peritoneal macrophages; format: cell-based, Leishmania infantum; settings: CC50 in Macrophages/IC50 in intracellular amastigotes
Method: as §3, §4

Row | SMILES | L. infantum SI (Selective Index)
23 | O=C1C2=C(C(=O)c3ccccc31)[C@H]1COc3ccccc3[C@H]1O2 [LQB 182 (2b)] | 4.69

same assay, conditions: Leishmania infantum, Peritoneal macrophage; intracellular amastigotes in mouse peritoneal macrophages, 72 h, infection index, Mean ± SEM; read-out: L. infantum Amastigote IC50

Row | SMILES | IC50 [µM]
24 | O=C1C2=C(C(=O)c3ccccc31)[C@H]1COc3cc4c(cc3[C@H]1O2)OCO4 [LQB 168 (2d)] | > 50
25 | O=C1C2=C(C(=O)c3ccccc31)[C@H]1COc3ccccc3[C@H]1O2 [LQB 182 (2b)] | 3.6 ± 0.9

same assay, conditions: intracellular amastigotes, 72 h

Row | SMILES | activity against L. infantum amastigotes (in words)
26 | O=C1C2=C(C(=O)c3ccccc31)[C@H]1COc3cc4c(cc3[C@H]1O2)OCO4 [LQB 168 (2d)] | no significant activity
27 | O=C1C2=C(C(=O)c3ccccc31)[C@H]1COc3ccccc3[C@H]1O2 [LQB 182 (2b)] | the only one active

test system: promastigotes of L. infantum; experiment: Measurement of reactive oxygen species (H2DCFDA); format: cell-based, Leishmania infantum; settings: 1.25–5.0 μM, 4 h
Method: Intracellular ROS levels were measured in treated and untreated cells as described previously. Briefly, 1 × 10^7 promastigotes/mL of L. infantum were incubated in Schneider’s insect medium supplemented with 20% HIFCS at 26 °C with concentrations of pterocarpanquinones 2a-f ranging from 0 to 5 μM in the presence of 20 μM H2DCFDA (Molecular Probes, Eugene, OR, USA). The fluorescence was monitored at 1 h intervals for 4 h using 485 and 530 nm as excitation and emission wavelengths, respectively, using the spectrofluorometer Spectra Max Gemini XPS (Molecular Devices, Silicon Valley, CA, USA). Antimycin A 10 μM was used as positive control.

Row | SMILES | ROS production, dependence on concentration
28 | O=C1C2=C(C(=O)c3ccccc31)[C@H]1COc3ccccc3[C@H]1O2 [LQB 182 (2b)] | increased ROS generation dependent on compound concentration

same assay, conditions: 1.25–5.0 μM, compared with control, listed as 2b

Row | SMILES | Early ROS production after 4 h of treatment
29 | O=C1C2=C(C(=O)c3ccccc31)[C@H]1COc3ccccc3[C@H]1O2 [LQB 182 (2b)] | induction of increased ROS production

test system: promastigotes of L. infantum; experiment: Mitochondrial membrane potential (ΔΨm) test (rhodamine 123, flow cytometry); format: cell-based, Leishmania infantum; settings: 1.25 μM, 4 h, Rh123, IV = (MT − MC)/MC, negative = depolarization, mean ± SD
Method: To determine the effect of pterocarpanquinones 2a-f on the ΔΨm, promastigotes of L. infantum (5 × 10^6 cells/mL) were incubated in the presence of 0–5 μM of derivatives at 26 °C. After 4 h, the parasites were incubated for 15 min with 10 μg/mL rhodamine 123 (Rh123) (Sigma-Aldrich). Data acquisition of 10,000 events and analysis were performed using the flow cytometer FACSCalibur (Becton-Dickinson, Rutherford, NJ, USA). Alteration in ΔΨm was quantified using an index of variation (IV) obtained by the eq. IV = (MT − MC)/MC [24], where MT is the median of the fluorescence of Rh123 for treated parasites and MC is the median of the fluorescence of the control parasites. Negative IV values correspond to depolarization of the mitochondrial membrane. The FCCP (Carbonyl cyanide-p-Trifluoromethoxyphenylhydrazone) 20 μM was used as positive control.

Row | SMILES | Δѱm index of variation (IV)
30 | O=C1C2=C(C(=O)c3ccccc31)[C@H]1COc3cc4c(cc3[C@H]1O2)OCO4 [LQB 168 (2d)] | −0.369 ± 0.08
31 | O=C1C2=C(C(=O)c3ccccc31)[C@H]1COc3ccccc3[C@H]1O2 [LQB 182 (2b)] | −0.397 ± 0.07

same assay, conditions: 2.5 μM, 4 h, Rh123, IV = (MT − MC)/MC, negative = depolarization, mean ± SD

Row | SMILES | Δѱm index of variation (IV)
32 | O=C1C2=C(C(=O)c3ccccc31)[C@H]1COc3cc4c(cc3[C@H]1O2)OCO4 [LQB 168 (2d)] | −0.194 ± 0.18
33 | O=C1C2=C(C(=O)c3ccccc31)[C@H]1COc3ccccc3[C@H]1O2 [LQB 182 (2b)] | −0.402 ± 0.04
